This passage reports XC50 results from ChEMBL document CHEMBL1157539, “Thousands of chemical starting points for antimalarial lead identification” (Nature, 2010).

Each structure is given as a SMILES string.

This test relates to Plasmodium falciparum. Kind of test: GSK_TCMDC: Inhibition of Plasmodium falciparum 3D7 in whole erythrocytes, using parasite LDH activity as an index of growth. It is filed as functional, organism-based. The following applies: Plasmodium falciparum, 3D7.
Turning to `COc1ccc2nc(C)cc(N/N=C/c3ccc([N+](=O)[O-])o3)c2c1`, the XC50 stood at 698 nM. `COc1cc2c(Nc3ccc(NC(=O)c4ccccc4)cc3)ncnc2cc1OCCCN1CCOCC1` registered an XC50 of 648 nM.

`CCN(CC)CCN(Cc1ccc(-c2ccc(Cl)s2)cc1)C(=O)Cn1c(CCc2cccc(F)c2F)nc(=O)c2ccccc21` displayed an XC50 of 1140 nM. As for `Cc1ccc(C)c(Cn2ccc3nc(Cl)nc(Cl)c32)c1`, the figure is 911 nM.

Consider `CN(C)CC(O)C(c1ccccc1)c1cccc(Br)c1` (configuration not stated), for which the XC50 worked out at 164 nM.

For `Cc1noc(-c2ccc3c(c2)CCN(CCC2CCC(NC(=O)/C=C/c4cccc(Cl)c4)CC2)CC3)n1` (configuration not stated), the XC50 was 998 nM. The value for `Cc1cc(NC(=O)c2sc3ccccc3c2O)no1` was 809 nM; that for `O=C(COc1cccc([N+](=O)[O-])c1)Nc1ccc(-c2nc3ccccc3[nH]2)cc1` was 754 nM.

As for `COc1ccccc1CNc1ccnc(N2CC(Oc3ccc(F)cc3)C2)n1`, the XC50 came to 850 nM.

`Cc1ccc(NC(=O)c2ccc(CN3CCCN(Cc4cccc(C#N)c4)CC3)cc2)cc1F` came in with an XC50 of 592 nM.

`Cc1ccc(NC(=O)c2ccc3ncccc3c2)cc1OC1CCN(Cc2ccc(F)cc2)CC1`: the XC50 turned out to be 944 nM.

The compound `Cn1c(=N)n(CC(=O)N2CCc3ccc(Cl)cc3C2Cc2ccc(Cl)c(Cl)c2)c2ccccc21` (configuration not stated) returned an XC50 of 869 nM. `COc1ccc(N2CCN(CCCNC(=O)c3ccc(NC(=O)c4cc(Cl)cc(Cl)c4)cc3)CC2)c(OC)c1` returned an XC50 of 269 nM. The value for `CCNc1cc(C)nc(Nc2ccc(NC(=O)c3cccs3)cc2)n1` was 1020 nM; that for `CCCCCCCOc1ccc(NC(=O)Nc2ccc(Cn3ncc(N4CCCNCC4)c(Cl)c3=O)cc2)cc1` was 923 nM. `CN(Cc1ccc(NC(=O)NC2CCN(C(=O)/C=C/c3ccc(Cl)c(Cl)c3)CC2)cc1)C1CCOCC1` had an XC50 of 876 nM.

`CCN1CCN(CCCNc2c3ccc(Cl)cc3nc3ccc(OC)cc23)CC1` registered an XC50 of 149 nM. As for `O=C(Nc1cc2cc(-c3ccc(CN4CCCCC4)cc3)ccc2n2cnnc12)NC1CCCC1`, the figure is 1520 nM; as for `CCCc1cc(C(C)=O)ccc1OCCCON1C(=N)N=C(N)NC1(C)C`, 4.57 nM; as for `Cc1nc(-c2ccc(-c3ccc(C(=O)Nc4ccc5c(c4)C4(CCNCC4)CO5)cc3)c(C)c2)no1`, 858 nM. The value for `COc1ccc(C(=O)COc2cccc(/C=C/C(=O)O)c2)cc1OC` was 1320 nM. The value for `COC(=O)c1ccc(CC(C)NCC(O)c2cccc(SC(F)(F)F)c2)cc1` (configuration not stated) was 887 nM; that for `O=c1cc(NCCCNC(CNCCc2ccccc2)c2cc(Br)cc(Br)c2)[nH]c2ccccc12` (configuration not stated) was 864 nM; that for `CCOc1cccc2nc(NCCCNCc3ccc(Cl)c(Cl)c3)cc(NCCCNCc3ccc(Cl)c(Cl)c3)c12` was 574 nM. Consider `Cn1c(=O)c2cc(C(=O)NCCCN3CCCCCC3)sc2c2ccccc21`, for which the XC50 turned out to be 689 nM. For `Clc1cccc(CNc2nc(NCCc3c[nH]cn3)nc(NC3CCCCC3)n2)c1`, the XC50 was 790 nM. Take `CC(Cc1ccc(OCCN2CCN(c3cccc(Cl)c3)CC2)cc1)NCC(O)c1cccc(C(F)(F)F)c1` (configuration not stated): the XC50 worked out at 602 nM. The value for `CCc1c[nH]c2c(N3CCCC3=O)cc(C(=O)N[C@@H](Cc3ccccc3)[C@H](O)CNC(C)(C)c3cccc(C(F)(F)F)c3)cc12` was 115 nM. Compound `CCC(CC)n1c(COC)cc2c3c(N)nc(N)nc3ccc21` registered an XC50 of 5.57 nM. The value for `CCCc1cc(NC2CCN(C)CC2)nc(Nc2ccc(C)cc2)n1` was 898 nM; that for `c1ccc(CSC2=NNC(c3ccccn3)S2)cc1` (configuration not stated) was 1480 nM. The value for `O=C(NCC1CCC1)c1cnc(Nc2cccc(Cl)c2)nc1N1CCC1` was 862 nM. As for `COc1cc(C=CC(=O)N2CCC3(CC2)CC(=O)c2ccccc2O3)cc(OC)c1OC`, the figure is 761 nM.

`CN1CCN(C(C(=O)NCc2cc(Cl)cc(Cl)c2)c2ccc(NC(=O)Nc3ccccc3)cc2)CC1` (configuration not stated) returned an XC50 of 692 nM. As for `COc1cc(NC(=O)CCCCCCCN2CCN(C)CC2)c2ncccc2c1`, the figure is 611 nM; as for `Nc1nccc2ccc(-c3cccc(O)c3)cc12`, 642 nM. The value for `CN(C(=O)/C=C/c1ccccc1F)C1CCN(CCCCCNC(=O)/C=C/c2ccc(Cl)c(Cl)c2)CC1` was 509 nM; that for `CCCN(CC(=O)NCCc1ccccc1)c1ccc(C#N)c2ccccc12` was 500 nM. The value for `CCn1c(-c2nonc2N)nc2cnc(Oc3cccc(NC(=O)c4ccc(OCCCN5CCCCC5)cc4)c3)cc21` was 925 nM; that for `Cc1ccc(O)cc1Nc1ccnc2ccc(-c3csc(CNCCN4CCOCC4)n3)cc12` was 153 nM.

For the compound `Clc1ccc(CNCCCCCCNCc2ccc(Cl)cc2)cc1`, the XC50 is 845 nM.

In the case of `CN(C)Cc1ccc(-c2ccc3ccnc(N)c3c2)cc1`, the XC50 was 380 nM. As for `CCc1nc2c(cnn2CC)c(NC2CCOCC2)c1CNC(=O)N1CCOCC1`, the figure is 892 nM. As for `O=C1CCCC1Sc1nc2ccccc2c(=O)n1-c1ccc(Cl)c(Cl)c1` (configuration not stated), the figure is 726 nM; as for `O=C(NC1CCCCN(Cc2ccccc2O)C1)c1cccc(Cl)c1` (configuration not stated), 1060 nM; as for `COc1cccc2cc(C(=O)N[C@@H](CC(C)C)C(=O)N[C@H](/C=N/N3C(=O)CN(Cc4ccccc4)C3=O)CCc3ccccc3)oc12`, 618 nM. As for `CC1(C)C(=O)Nc2ccc3c(c21)CC1SC(=O)NN=C31` (configuration not stated), the figure is 1490 nM; as for `CC(=O)Nc1sc(C)c(C)c1CN1CCc2ccccc2C1`, 616 nM. Compound `c1ccc2c(CNc3ccnc(NCc4cccc5ccccc45)n3)cccc2c1` gave an XC50 of 559 nM. As for `N#Cc1ccc(C(=O)NC2CCN(CCCCCNC(=O)/C=C/c3ccc(Cl)c(Cl)c3)CC2)cc1`, the figure is 836 nM; as for `COc1ccc(OC)c(Cc2cnc3nc(N)[nH]c(=O)c3c2C)c1`, 357 nM; as for `CN1CCCN(Cc2ccc(-c3cccc(NC(=O)c4ccc(Cl)cc4)c3)cc2)CC1`, 610 nM. The value for `O=C(Nc1cccc(-c2nn3ccccc3c2-c2ccnc(Nc3cccc(N4CCCC4=O)c3)n2)c1)c1cc(F)ccc1F` was 212 nM; that for `CCC1CN2CCc3c([nH]c4ccccc34)C2CC1CC1=NCCc2c1[nH]c1ccccc21` (configuration not stated) was 737 nM; that for `CCN(CC)CCOC(=O)c1ccc(NC(=O)c2cn(-c3ccccc3)nc2-c2cccs2)cc1` was 379 nM. `CCN(CCNc1nc(NCCc2cnc[nH]2)nc(N(CCC#N)Cc2ccccc2)n1)c1cccc(C)c1` came in with an XC50 of 715 nM. The value for `CCOC(=O)CCc1cc(F)c(F)c(OC[C@H](O)CNC(C)(C)C(O)c2ccc3ccccc3c2)c1` (some centres not stated) was 859 nM.

`O=C(Nc1ccc(OC2CCN(Cc3ccc(F)cc3)C2)c(Cl)c1)c1ccoc1` (configuration not stated): the XC50 is 938 nM. Compound `COc1cc(CC2c3cc(O)c(Cl)cc3CCN2C)c(OC)cc1C` (configuration not stated) gave an XC50 of 713 nM. `O=C(Nc1ccc2nc3n(c(=O)c2c1)CCCCC3)C(=O)N1CCN(c2ccc(F)cc2)CC1` yielded an XC50 of 636 nM. The value for `N=C(N)NC(=O)Nc1cc(Cl)c(Br)c(Cl)c1` was 469 nM; that for `Cc1cc(C)c2cc(CNCCCNc3nc4ccccc4[nH]3)[nH]c2c1` was 768 nM. The value for `COc1ccc2nccc([C@@H](O)CN3CCC(NC(=O)C(c4cc5ccccc5o4)N4CCN(c5ccccc5OC)CC4)CC3)c2c1` (some centres not stated) was 308 nM.

With `CC(=O)N(Cc1ccc(CC(C)NCCc2cccc(Cl)c2)cc1)Cc1ccc(CC(C)NCCc2cccc(Cl)c2)cc1` (configuration not stated), the XC50 was 783 nM.

As to `CN(C(=O)c1ccccc1)C1c2cc(C#N)ccc2OC(C)(C)C1O` (configuration not stated), the XC50 amounted to 654 nM. `NS(=O)(=O)c1cccc(-c2ccc3ncc(N4CCOCC4)nc3c2)c1` showed an XC50 of 987 nM. `CCCCn1c(N)c(N(Cc2ccco2)C(=O)C=Cc2cc(OC)c3c(c2)OCCO3)c(O)nc1=O` returned an XC50 of 946 nM. As for `CN1CCC(C(=O)Nc2ccc(-c3ccc(-c4nc5ccccc5[nH]4)cc3)cc2)CC1`, the XC50 amounted to 976 nM.

With `Cc1ccc(CC(C)NCC(O)c2cccc(Cl)c2)cc1F` (configuration not stated), the XC50 was determined as 742 nM. The value for `N#Cc1ccc(NC(=O)N2CCCN(CCCCCNC(=O)/C=C/c3ccc(Cl)c(Cl)c3)CC2)cc1` was 768 nM; that for `Cc1ccnc(Nc2nc(-c3ccccn3)cs2)c1` was 998 nM; that for `COCCN1CCC(CN(C)CC(C)(C)c2nc(-c3ccc(Cl)c(O)c3)c(-c3ccncc3)[nH]2)CC1` was 1030 nM. The value for `O=C(c1ccc(O)c(-c2cc(Cl)cc(Cl)c2)c1)N1CCCC1` was 1000 nM. As for `Nc1cccc(CNCc2ccc(-c3ccc(-c4nc5cc(F)ccc5[nH]4)s3)cc2)c1`, the figure is 992 nM; as for `O=C(Nc1cccc(C(F)(F)F)c1)c1ccc(S(=O)(=O)NCC2CCN(CC3CCCCC3)CC2)cc1`, 320 nM; as for `CC1=C(C(=O)OCCOCc2ccccc2)C(c2ccccc2C(F)(F)F)C(C(=O)OCCOCc2ccccc2)=C(C)N1`, 532 nM. Compound `O=C(Cc1cccc(Cl)c1)N1CCc2cc3nccc(N4CCN5CCC[C@H]5C4)c3cc21` gave an XC50 of 854 nM. As for `CC(C)(C)c1cc(C(=O)N2CCN(c3ncnc4ccsc34)CC2)n(Cc2ccccc2)n1`, the figure is 907 nM. Take `COc1cc(CCCOc2c(N)nc(N)nc2N)cc(OC)c1OC`: the XC50 turned out to be 1220 nM. The value for `COc1ccc2nccc([C@@H](O)CN3CCC(NCCOc4ccccc4C#N)CC3)c2c1` was 398 nM; that for `COc1ccc(Nc2ncc3c(-c4ccc(NC(=O)c5cccc(C(F)(F)F)c5)cc4)c[nH]c3n2)cc1OC` was 1030 nM; that for `CCn1c(-c2nonc2N)nc2c(-c3cccc(NC(=O)Nc4ccccc4OC)c3)ncc(OCCCN)c21` was 1000 nM.

`COc1cccc(CCc2nc3c(N4CCC(Cc5ccccc5)CC4)cccc3n2CC2CNCCO2)c1` (configuration not stated): the XC50 is 800 nM. As for `Cn1c(NC(=O)CCCCCNC(=O)c2ccc(O)c(-c3ccc(Cl)c(Cl)c3)c2)nc2ccccc21`, the figure is 726 nM; as for `O=C(N[C@@H](Cc1ccccc1)[C@H](O)CNC1CCCCC1)c1cc(C2CCCC2)cc(N2CCCC2=O)c1`, 169 nM; as for `CN(c1ccc2c(c1)nc(NCc1ccc(F)cc1)n2C)c1ccnc(Nc2ccc(CS(C)(=O)=O)cc2)n1`, 828 nM.

Compound `COc1ccc(CNCC(C)(C)c2nc(-c3ccc(Cl)c(O)c3)c(-c3ccncc3)[nH]2)cc1` yielded an XC50 of 357 nM.
